Consider one compound from US20210330611A1, “THERAPY FOR NEUROLOGICAL DISEASES/DISORDERS” (priority 2020, published 2021).

SMILES strings stand for the structures.

One data set relates to microglia. It is filed as in vivo, mouse. The settings on record: healthy mice, 14 days, FIG. 12. The protocol: FIGS. 12A-E. Effects of acivicin on microglia, macrophage and whole blood cell numbers. a, Representative images showing morphology and density of primary microglia treated with vehicle or acivicin for 48 h stained with nuclei marker Hoechst or CellMask Red Whole Cell Stain. Quantification of the total number of microglia. Data are representative of one experiment with technical replicates (open symbols). b, Representative confocal images showing morphology and density of control- and acivicin-treated BMDMs treated for 24 h. Scale bar, 100 μm. Insets depict digitally zoomed in areas of regions of interest. Quantification of the total number of BMDMs in the field of view. […] Cell viability of single CD45^+ cells was assessed by Sytox blue live/dead nuclei stain. Quantification of percent cell viability of CD45^+ BMDMs treated with acivicin or left untreated. Data are from 2 independent experiments with n=4 mice per group (mean±s.d.). d, Quantification of complete blood count analysis of white blood cells (WBCs), red blood cells (RBC), platelets (PLT) (left) and composition of WBCs (right) of blood samples from healthy mice treated with saline or acivicin for 10 days. […] Quantification of total microglia cell numbers in healthy mice treated with acivicin or saline. […]

The subject of the next data set is neuronal viability. The settings on record: similar concentration range; cited from earlier work.
A further data set deals with intracellular GSH. The class given is cell-based, mouse. As for the experimental part:
Real-time imaging of glutathione. The real-time GSH dynamics in living BMDMs was determined with the fluorescent GSH probe, RealThiol RT-AM as described (37). Cells were plated on 2-well chamber slide (Nunc) pre-coated with 25 μg/ml fibrin. Cells were stimulated with fibrin with or without 5 μM acivicin or GGsTop. The GSH synthesis inhibitor, buthionine sulfoximine (BSO, Sigma-Aldrich) was used as positive control for reducing intracellular GSH levels at 100 μM. After 24 h incubation, cells were loaded with 1 μM RT-AM probe and were incubated for 5 min before imaging. The cells were kept at 37° C. during the entire experiment. […] For each independent experiment, laser power and detector settings were set using the control/untreated cells incubated with RT-AM alone as reference. All settings were kept constant throughout the experiment. […] The ratio calculated for each treatment was expressed as percentage from that of the untreated cells (control).

A further data set has as its system primary rat microglia. Briefly: Cell toxicity (dead cells, size <150 μm2) in LPS assay. The conditions noted are these: primary microglia HTS, LPS stimulation; decreased size (<150 μm^2) as marker of toxicity.
The next data set relates to naïve CD4+ T cells. The experiment in a line: Non-antigen-specific T-cell proliferation (anti-CD3/CD28). It is filed as cell-based, mouse. The settings on record: 5, 0.5 or 0.05 μM, FIG. 14G, H. As for the experimental part: T-cell proliferation assay. For antigen-specific T cell proliferation, näive CD4+ T cells were magnetically sorted from the TCR-transgenic 2D2 mice using naïve CD4+ T cell isolation kits (Miltenyi Biotec). […]. For non-antigen-specific T cell proliferation, naïve CD4^+ T cells were treated with acivicin and stimulated with mouse T-activator CD3/CD28 Dynabeads (Thermo Fisher Scientific) for 3 d. Cells were then fixed, permeabilized, and stained with FITC-conjugated anti-BrdU (BrdU Flow Kits, BD Biosciences).

The next data set concerns adoptive transfer EAE. Briefly: Adoptive transfer EAE induced by PLP139-151-specific T cells, clinical scores. It is filed as in vivo, mouse. The conditions noted are these: prophylactic, 5 mg/kg daily from day 0, FIG. 7d.

In the case of `N[C@H](C(=O)O)[C@@H]1CC(Cl)=NO1` [Acivicin, (2S)-2-amino-2-[(5S)-3-chloro-4,5-dihydro-1,2-oxazol-5-yl] acetic acid], in the data set on microglia, the “microglia numbers in the spinal cord in vivo” value is listed as “did not affect”. For the same compound, the neuronal viability result in the data set with neuronal viability is recorded as “does not affect”. For the same compound, the “fibrin-induced degradation of glutathione (RealThiol F405/F488)” value in the data set on intracellular GSH was “inhibited”. Also, the “LPS % cell toxicity” value in the data set with primary rat microglia was 4%. In the data set on naïve CD4+ T cells, the “T cell proliferation (BrdU) without APCs, anti-CD3 and anti-CD28” value was “only in the presence of APCs”. Moreover, the “disease onset and severity” value in the data set on adoptive transfer EAE is listed as “delayed”.
